Reference: patent US11548870B2, “Compounds useful as inhibitors of helios protein” (Bristol-Myers Squibb Company, priority 2019, dated 2023)
Read-outs that look alike come from different tables or passages of the source.

Experiments:
Ikaros = biological target: T1, Ikaros (Homo sapiens, UniProt Q13422); test: Helios Cellular Degradation Assay, Ikaros readout (flow cytometry, Ikaros-Alexa488 antibody staining, 72 h); type: cell-based; conditions: for Dmax: Jurkat, read-out: Ikaros Dmax
T1 construct: fluorescently labelled antibodies against Helios and Ikaros; endogenous in cells; host or cells: Jurkat cells
Method in brief: (§1)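 Flow cytometry of fixed, permeabilized Jurkat cells stained with anti-Helios-PE and anti-Ikaros-Alexa488 (1 h, room temperature) measured remaining protein. Treatment lasted 72 h at 37 °C, 5% CO2, at 80,000 cells/well in RPMI with 10% FBS.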

Helios = biological target: T2, Helios (Homo sapiens, UniProt Q96SW2+Q9UKS7); test: Helios Cellular Degradation Assay (flow cytometry, Helios-PE antibody staining, 72 h); type: cell-based; conditions: for Dmax: Jurkat, read-out: Helios Dmax
T2 construct: fluorescently labelled antibodies against Helios and Ikaros; endogenous in cells; host or cells: Jurkat cells
Method in brief: as §1

[1] = Jurkat cells, 72 h incubation, flow cytometry

T2 sequence (Q9UKS7 whole entry): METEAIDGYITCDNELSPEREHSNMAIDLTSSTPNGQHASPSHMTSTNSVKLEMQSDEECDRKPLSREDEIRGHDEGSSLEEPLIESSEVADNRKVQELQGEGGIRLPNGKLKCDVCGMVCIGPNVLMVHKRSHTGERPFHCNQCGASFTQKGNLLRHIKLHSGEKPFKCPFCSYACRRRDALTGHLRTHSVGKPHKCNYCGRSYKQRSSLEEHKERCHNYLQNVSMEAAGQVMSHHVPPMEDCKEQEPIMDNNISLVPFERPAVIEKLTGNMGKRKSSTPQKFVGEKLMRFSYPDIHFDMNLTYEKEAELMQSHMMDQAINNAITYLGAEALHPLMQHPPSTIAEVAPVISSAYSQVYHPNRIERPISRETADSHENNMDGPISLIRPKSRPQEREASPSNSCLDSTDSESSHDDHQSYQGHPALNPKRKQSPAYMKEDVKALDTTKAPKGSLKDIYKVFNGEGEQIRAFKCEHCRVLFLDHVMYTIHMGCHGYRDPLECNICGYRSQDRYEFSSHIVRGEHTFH
T2 sequence (Q96SW2 whole entry): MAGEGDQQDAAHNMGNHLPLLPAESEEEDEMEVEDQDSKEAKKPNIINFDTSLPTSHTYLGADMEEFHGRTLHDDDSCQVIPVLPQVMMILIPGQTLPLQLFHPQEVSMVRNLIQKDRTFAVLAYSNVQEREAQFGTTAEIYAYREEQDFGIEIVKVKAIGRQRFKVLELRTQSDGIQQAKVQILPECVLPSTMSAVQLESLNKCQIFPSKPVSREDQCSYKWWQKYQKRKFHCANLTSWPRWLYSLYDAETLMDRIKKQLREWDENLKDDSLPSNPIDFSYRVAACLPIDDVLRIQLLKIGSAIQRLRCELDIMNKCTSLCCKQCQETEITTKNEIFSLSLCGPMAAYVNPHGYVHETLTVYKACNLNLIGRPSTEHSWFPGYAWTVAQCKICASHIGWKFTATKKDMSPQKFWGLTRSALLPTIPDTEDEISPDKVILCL
T2 sequence (Q16531 whole entry partner): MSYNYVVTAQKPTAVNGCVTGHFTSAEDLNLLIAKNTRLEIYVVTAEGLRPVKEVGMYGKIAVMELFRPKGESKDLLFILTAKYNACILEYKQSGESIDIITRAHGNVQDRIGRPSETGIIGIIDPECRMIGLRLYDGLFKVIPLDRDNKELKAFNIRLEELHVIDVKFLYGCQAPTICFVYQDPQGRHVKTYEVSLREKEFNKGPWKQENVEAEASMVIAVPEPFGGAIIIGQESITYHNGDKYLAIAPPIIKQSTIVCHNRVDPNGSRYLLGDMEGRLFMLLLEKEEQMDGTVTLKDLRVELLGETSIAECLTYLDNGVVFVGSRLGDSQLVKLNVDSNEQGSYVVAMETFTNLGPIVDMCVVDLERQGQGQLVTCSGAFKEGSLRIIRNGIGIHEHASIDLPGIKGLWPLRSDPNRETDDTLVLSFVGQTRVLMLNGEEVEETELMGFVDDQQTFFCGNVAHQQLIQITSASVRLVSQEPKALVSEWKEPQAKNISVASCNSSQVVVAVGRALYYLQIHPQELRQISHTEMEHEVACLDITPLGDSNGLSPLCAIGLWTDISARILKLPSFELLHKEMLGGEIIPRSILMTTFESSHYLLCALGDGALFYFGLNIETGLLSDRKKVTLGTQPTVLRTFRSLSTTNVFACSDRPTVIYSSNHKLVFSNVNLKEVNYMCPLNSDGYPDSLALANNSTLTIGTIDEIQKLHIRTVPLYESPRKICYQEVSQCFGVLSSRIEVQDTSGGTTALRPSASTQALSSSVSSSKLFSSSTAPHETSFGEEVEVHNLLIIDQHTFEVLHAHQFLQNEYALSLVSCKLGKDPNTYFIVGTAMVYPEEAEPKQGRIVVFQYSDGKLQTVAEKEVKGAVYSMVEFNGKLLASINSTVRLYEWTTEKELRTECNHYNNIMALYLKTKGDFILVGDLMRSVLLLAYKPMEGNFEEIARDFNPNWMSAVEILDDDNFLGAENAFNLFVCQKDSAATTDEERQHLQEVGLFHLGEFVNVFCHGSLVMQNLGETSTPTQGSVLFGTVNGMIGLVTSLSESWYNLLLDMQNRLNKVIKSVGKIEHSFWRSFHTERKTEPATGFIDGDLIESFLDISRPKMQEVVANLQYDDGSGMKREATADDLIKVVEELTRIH
T1 sequence (Q96SW2 whole entry partner): as the sequence (Q96SW2 whole entry) above
T1 sequence (Q16531 whole entry partner): as the sequence (Q16531 whole entry partner) above
T1 sequence (Q13422 whole entry): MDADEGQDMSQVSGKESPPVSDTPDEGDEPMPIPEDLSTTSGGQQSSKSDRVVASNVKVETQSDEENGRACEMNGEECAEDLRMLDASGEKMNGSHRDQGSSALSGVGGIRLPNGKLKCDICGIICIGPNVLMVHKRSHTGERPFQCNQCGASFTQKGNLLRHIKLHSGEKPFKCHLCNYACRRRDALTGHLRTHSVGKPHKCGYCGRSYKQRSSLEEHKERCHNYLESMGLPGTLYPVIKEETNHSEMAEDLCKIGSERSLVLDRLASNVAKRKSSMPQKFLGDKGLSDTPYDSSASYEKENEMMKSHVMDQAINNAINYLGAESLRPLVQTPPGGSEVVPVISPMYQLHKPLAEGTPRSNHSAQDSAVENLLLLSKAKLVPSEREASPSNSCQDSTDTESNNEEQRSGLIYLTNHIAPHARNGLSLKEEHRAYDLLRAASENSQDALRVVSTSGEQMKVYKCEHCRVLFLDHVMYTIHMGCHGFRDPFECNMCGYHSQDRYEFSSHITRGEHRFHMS

`CC(C)(C)CNCc1ccnc(-c2ccc3c(c2)CN(C2CCC(=O)NC2=O)C3=O)c1` (stereo not drawn) [Example 65, 3-(5-(4-((neopentylamino)methyl)pyridin-2-yl)-1-oxoisoindolin-2-yl)piperidine-2,6-dione] showed a DC50 (Ikaros; [1]) of over 10000 nM, a Dmax (Ikaros; [1]) of 7% and a DC50 (Helios; [1]) of 55 nM. For the same molecule, the Dmax (Helios; [1]) was 70%.
In the case of `O=C1CCC(N2Cc3cc(-c4cc(CNCC5CCCO5)ccn4)ccc3C2=O)C(=O)N1` (stereo not drawn) [Example 66, 3-(1-oxo-5-(4-((((tetrahydrofuran-2-yl)methyl)amino)methyl)pyridin-2-yl)isoindolin-2-yl)piperidine-2,6-dione], the DC50 (Ikaros; [1]) was over 10000 nM, the Dmax (Ikaros; [1]) was 7% and the DC50 (Helios; [1]) was over 10000 nM. For the same molecule, the Dmax (Helios; [1]) was 26%.
Work on `COc1ccc(CNCc2ccnc(-c3ccc4c(c3)CN(C3CCC(=O)NC3=O)C4=O)c2)cc1` (stereo not drawn) [Example 67, 3-(5-(4-(((4-methoxybenzyl)amino)methyl)pyridin-2-yl)-1-oxoisoindolin-2-yl)piperidine-2,6-dione] yielded a DC50 (Ikaros; [1]) of over 10000 nM, a Dmax (Ikaros; [1]) of 6% and a DC50 (Helios; [1]) of over 10000 nM. It also gave a Dmax (Helios; [1]) of 41%.
With `COCCNCc1ccnc(-c2ccc3c(c2)CN(C2CCC(=O)NC2=O)C3=O)c1` (stereo not drawn) [Example 68, 3-(5-(4-(((2-methoxyethyl)amino)methyl)pyridin-2-yl)-1-oxoisoindolin-2-yl)piperidine-2,6-dione] the DC50 (Ikaros; [1]) was over 10000 nM, the Dmax (Ikaros; [1]) was 15% and the DC50 (Helios; [1]) was 192 nM. For the same molecule, the Dmax (Helios; [1]) was 71%.
Work on `C[C@H]1CCCN1Cc1ccnc(-c2ccc3c(c2)CN(C2CCC(=O)NC2=O)C3=O)c1` (stereo partly drawn) [Example 69, 3-(5-(4-(((S)-2-methylpyrrolidin-1-yl)methyl)pyridin-2-yl)-1-oxoisoindolin-2-yl)piperidine-2,6-dione] yielded a DC50 (Ikaros; [1]) of over 10000 nM, a Dmax (Ikaros; [1]) of 0% and a DC50 (Helios; [1]) of 783 nM. For the same molecule, the Dmax (Helios; [1]) was 57%.
`C[C@@H]1CCN(Cc2ccnc(-c3ccc4c(c3)CN(C3CCC(=O)NC3=O)C4=O)c2)C1` (stereo partly drawn) [Example 70, 3-(5-(4-(((R)-3-methylpyrrolidin-1-yl)methyl)pyridin-2-yl)-1-oxoisoindolin-2-yl)piperidine-2,6-dione] was tested, and the DC50 (Ikaros; [1]) was over 10000 nM, the Dmax (Ikaros; [1]) was 10% and the DC50 (Helios; [1]) was 19 nM. It also gave a Dmax (Helios; [1]) of 79%.
With `C[C@@H]1CCCCN1Cc1ccnc(-c2ccc3c(c2)CN(C2CCC(=O)NC2=O)C3=O)c1` (stereo partly drawn) [Example 71, 3-(5-(4-(((R)-2-methylpiperidin-1-yl)methyl)pyridin-2-yl)-1-oxoisoindolin-2-yl)piperidine-2,6-dione] the DC50 (Ikaros; [1]) was over 10000 nM, the Dmax (Ikaros; [1]) was 8% and the DC50 (Helios; [1]) was over 10000 nM. For the same molecule, the Dmax (Helios; [1]) was 17%.
Work on `C[C@H]1CCN(Cc2ccnc(-c3ccc4c(c3)CN(C3CCC(=O)NC3=O)C4=O)c2)C1` (stereo partly drawn) [Example 72, 3-(5-(4-(((S)-3-methylpyrrolidin-1-yl)methyl)pyridin-2-yl)-1-oxoisoindolin-2-yl) piperidine-2,6-dione] yielded a DC50 (Ikaros; [1]) of over 10000 nM, a Dmax (Ikaros; [1]) of 13% and a DC50 (Helios; [1]) of 13 nM. The Dmax (Helios; [1]) was 90%.
With `C[C@H]1CCCN(Cc2ccnc(-c3ccc4c(c3)CN(C3CCC(=O)NC3=O)C4=O)c2)C1` (stereo partly drawn) [Example 73, 3-(5-(4-(((S)-3-methylpiperidin-1-yl)methyl)pyridin-2-yl)-1-oxoisoindolin-2-yl)piperidine-2,6-dione] the DC50 (Ikaros; [1]) was over 10000 nM, the Dmax (Ikaros; [1]) was 13% and the DC50 (Helios; [1]) was 45 nM. The Dmax (Helios; [1]) was 62%.
Molecule `C[C@H]1CCCCN1Cc1ccnc(-c2ccc3c(c2)CN(C2CCC(=O)NC2=O)C3=O)c1` (stereo partly drawn) [Example 74, 3-(5-(4-(((S)-2-methylpiperidin-1-yl)methyl)pyridin-2-yl)-1-oxoisoindolin-2-yl)piperidine-2,6-dione] has a DC50 (Ikaros; [1]) of over 10000 nM, a Dmax (Ikaros; [1]) of 16% and a DC50 (Helios; [1]) of 2500 nM. It also gave a Dmax (Helios; [1]) of 53%.
`C[C@@H]1CCCN(Cc2ccnc(-c3ccc4c(c3)CN(C3CCC(=O)NC3=O)C4=O)c2)C1` (stereo partly drawn) [Example 75, 3-(5-(4-(((R)-3-methylpiperidin-1-yl)methyl)pyridin-2-yl)-1-oxoisoindolin-2-yl)piperidine-2,6-dione] showed a DC50 (Ikaros; [1]) of over 10000 nM, a Dmax (Ikaros; [1]) of 10% and a DC50 (Helios; [1]) of 14 nM. The Dmax (Helios; [1]) was 94%.
In the case of `O=C1CCC(N2Cc3cc(-c4cc(CN5CCC5c5ccccc5)ccn4)ccc3C2=O)C(=O)N1` (stereo not drawn) [Example 76, 3-(1-oxo-5-(4-((2-phenylazetidin-1-yl)methyl)pyridin-2-yl)isoindolin-2-yl) piperidine-2,6-dione], the DC50 (Ikaros; [1]) was over 10000 nM, the Dmax (Ikaros; [1]) was 12% and the DC50 (Helios; [1]) was 6 nM. The Dmax (Helios; [1]) was 98%.
`O=C1CCC(N2Cc3cc(-c4cc(CNC5(C6CC6)CCC5)ccn4)ccc3C2=O)C(=O)N1` (stereo not drawn) [Example 77, 3-(5-(4-(((1-cyclopropylcyclobutyl)amino)methyl)pyridin-2-yl)-1-oxoisoindolin-2-yl)piperidine-2,6-dione] was tested, and the DC50 (Ikaros; [1]) was over 10000 nM, the Dmax (Ikaros; [1]) was 12% and the DC50 (Helios; [1]) was 12 nM. The Dmax (Helios; [1]) was 85%.
`CN1C[C@@H]2CN(Cc3ccnc(-c4ccc5c(c4)CN(C4CCC(=O)NC4=O)C5=O)c3)C[C@@H]2C1` (stereo partly drawn) [Example 78, 3-(5-(4-(((3aR,6aS)-5-methylhexahydropyrrolo[3,4-c]pyrrol-2(1H)-yl)methyl)pyridin-2-yl)-1-oxoisoindolin-2-yl)piperidine-2,6-dione] showed a DC50 (Ikaros; [1]) of over 10000 nM, a Dmax (Ikaros; [1]) of 0% and a DC50 (Helios; [1]) of over 10000 nM. The Dmax (Helios; [1]) was 49%.
`O=C1CCC(N2Cc3cc(-c4cc(CN5CC6CC5CO6)ccn4)ccc3C2=O)C(=O)N1` (stereo not drawn) [Example 79, 3-(5-(4-((2-oxa-5-azabicyclo[2.2.1]heptan-5-yl)methyl)pyridin-2-yl)-1-oxoisoindolin-2-yl) piperidine-2,6-dione] showed a DC50 (Ikaros; [1]) of over 10000 nM, a Dmax (Ikaros; [1]) of 8% and a DC50 (Helios; [1]) of over 10000 nM. It also gave a Dmax (Helios; [1]) of 26%.
For `CC1CC(NCc2ccnc(-c3ccc4c(c3)CN(C3CCC(=O)NC3=O)C4=O)c2)CCO1` (stereo not drawn) [Example 80, 3-(5-(4-(((2-methyltetrahydro-2H-pyran-4-yl)amino)methyl)pyridin-2-yl)-1-oxoisoindolin-2-yl)piperidine-2,6-dione], the DC50 (Ikaros; [1]) was over 10000 nM, the “Ikaros Dmax” value (Ikaros; [1]) was 12% and the DC50 (Helios; [1]) was 35 nM. For the same molecule, the “Helios Dmax” value (Helios; [1]) was 99%.
Molecule `C[C@@H]1C[C@H](C)CN(Cc2ccnc(-c3ccc4c(c3)CN(C3CCC(=O)NC3=O)C4=O)c2)C1` (stereo partly drawn) [Example 81, 3-(5-(4-(((3S,5R)-3,5-dimethylpiperidin-1-yl)methyl)pyridin-2-yl)-1-oxoisoindolin-2-yl)piperidine-2,6-dione] has a DC50 (Ikaros; [1]) of over 10000 nM, a Dmax (Ikaros; [1]) of 26% and a DC50 (Helios; [1]) of 78 nM. The Dmax (Helios; [1]) was 64%.
`CC1(C)CCN(Cc2ccnc(-c3ccc4c(c3)CN(C3CCC(=O)NC3=O)C4=O)c2)CC1` (stereo not drawn) [Example 82, 3-(5-(4-((4,4-dimethylpiperidin-1-yl)methyl)pyridin-2-yl)-1-oxoisoindolin-2-yl)piperidine-2,6-dione] showed a DC50 (Ikaros; [1]) of over 10000 nM, a Dmax (Ikaros; [1]) of 17% and a DC50 (Helios; [1]) of 9 nM. It also gave a Dmax (Helios; [1]) of 89%.
For `O=C1CCC(N2Cc3cc(-c4cc(CN5CC(c6ccccc6)C5)ccn4)ccc3C2=O)C(=O)N1` (stereo not drawn) [Example 83, 3-(1-oxo-5-(4-((3-phenylazetidin-1-yl)methyl)pyridin-2-yl)isoindolin-2-yl)piperidine-2,6-dione], the DC50 (Ikaros; [1]) was over 10000 nM, the Dmax (Ikaros; [1]) was 20% and the DC50 (Helios; [1]) was 7 nM. The Dmax (Helios; [1]) was 91%.
In the case of `O=C1CCC(N2Cc3cc(-c4cc(CN[C@@H]5CCC[C@@H]5c5ccccc5)ccn4)ccc3C2=O)C(=O)N1` (stereo partly drawn) [Example 84, 3-(1-oxo-5-(4-((((1R,2R)-2-phenylcyclopentyl)amino)methyl)pyridin-2-yl)isoindolin-2-yl)piperidine-2,6-dione], the DC50 (Ikaros; [1]) was over 10000 nM, the Dmax (Ikaros; [1]) was 4% and the DC50 (Helios; [1]) was 40 nM. The Dmax (Helios; [1]) was 69%.
`CC1(C)CCCN(Cc2ccnc(-c3ccc4c(c3)CN(C3CCC(=O)NC3=O)C4=O)c2)C1` (stereo not drawn) [Example 85, 3-(5-(4-((3,3-dimethylpiperidin-1-yl)methyl)pyridin-2-yl)-1-oxoisoindolin-2-yl)piperidine-2,6-dione] gave a DC50 (Ikaros; [1]) of over 10000 nM, a Dmax (Ikaros; [1]) of 7% and a DC50 (Helios; [1]) of over 10000 nM. It also gave a Dmax (Helios; [1]) of 20%.
Molecule `O=C1CCC(N2Cc3cc(-c4cc(CNC5CCCC5)ccn4)ccc3C2=O)C(=O)N1` (stereo not drawn) [Example 86, 3-(5-(4-((cyclopentylamino)methyl)pyridin-2-yl)-1-oxoisoindolin-2-yl)piperidine-2,6-dione] has a DC50 (Ikaros; [1]) of over 10000 nM, a Dmax (Ikaros; [1]) of 20% and a DC50 (Helios; [1]) of 19 nM. For the same molecule, the Dmax (Helios; [1]) was 91%.
`O=C1CCC(N2Cc3cc(-c4cc(CNC5CCCCC5)ccn4)ccc3C2=O)C(=O)N1` (stereo not drawn) [Example 87, 3-(5-(4-((cyclohexylamino)methyl)pyridin-2-yl)-1-oxoisoindolin-2-yl) piperidine-2,6-dione] showed a DC50 (Ikaros; [1]) of over 10000 nM, a Dmax (Ikaros; [1]) of 12% and a DC50 (Helios; [1]) of 29 nM. The Dmax (Helios; [1]) was 100%.
`O=C1CCC(N2Cc3cc(-c4cc(CNCCN5CCOCC5)ccn4)ccc3C2=O)C(=O)N1` (stereo not drawn) [Example 88, 3-(5-(4-(((2-morpholinoethyl)amino)methyl)pyridin-2-yl)-1-oxoisoindolin-2-yl)piperidine-2,6-dione] showed a DC50 (Ikaros; [1]) of over 10000 nM, a Dmax (Ikaros; [1]) of 27% and a DC50 (Helios; [1]) of 72 nM. It also gave a Dmax (Helios; [1]) of 102%.
Work on `CC(C)(C)NCc1ccnc(-c2ccc3c(c2)CN(C2CCC(=O)NC2=O)C3=O)c1` (stereo not drawn) [Example 89, 3-(5-(4-((tert-butylamino)methyl)pyridin-2-yl)-1-oxoisoindolin-2-yl)piperidine-2,6-dione] yielded a DC50 (Ikaros; [1]) of over 10000 nM, a Dmax (Ikaros) of 8% and a DC50 (Helios; [1]) of 103 nM. The Dmax (Helios) was 71%.
With `O=C1CCC(N2Cc3cc(-c4cc(CNCC(c5ccccc5)c5ccccc5)ccn4)ccc3C2=O)C(=O)N1` (stereo not drawn) [Example 90, 3-(5-(4-(((2,2-diphenylethyl)amino)methyl)pyridin-2-yl)-1-oxoisoindolin-2-yl)piperidine-2,6-dione] the DC50 (Ikaros; [1]) was over 10000 nM, the Dmax (Ikaros; [1]) was 17% and the DC50 (Helios; [1]) was 213 nM. It also gave a Dmax (Helios; [1]) of 61%.
In the case of `CC(=O)NCCNCc1ccnc(-c2ccc3c(c2)CN(C2CCC(=O)NC2=O)C3=O)c1` (stereo not drawn) [Example 91, N-(2-(((2-(2-(2,6-dioxopiperidin-3-yl)-1-oxoisoindolin-5-yl)pyridin-4-yl)methyl)amino)ethyl)acetamide], the DC50 (Ikaros; [1]) was over 10000 nM, the Dmax (Ikaros; [1]) was 4% and the DC50 (Helios; [1]) was 3530 nM. It also gave a Dmax (Helios; [1]) of 60%.
